Assay results published in ChEMBL document CHEMBL1201862, “PubChem BioAssay data set” (2004).
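All cell lines were grown in 96-well plates and treated with compound for 48 hours. Here, GI50 denotes the concentration required for 50% inhibition of growth.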 Active and inactive are the calls of the source. No stated cut-off is given here; in the data, active = GI50 up to about 1.1 µM and inactive = higher.

Experiments:
Test in all cases: inhibition of tumour cell growth, NCI panel, 48 h
KM12 = test system: KM12
OVCAR-4 = test system: OVCAR-4
OVCAR-8 = test system: OVCAR-8
SW-620 = test system: SW-620
BT-549 = test system: BT-549
IGROV-1 = test system: IGROV-1
A498 = test system: A498
DMS-273 = test system: DMS-273
SF-539 = test system: SF-539
SK-MEL-28 = test system: SK-MEL-28
CCRF-CEM = test system: CCRF-CEM
UACC-62 = test system: UACC-62
SF-295 = test system: SF-295
OVCAR-5 = test system: OVCAR-5
PC-3 = test system: PC-3
MCF7 = test system: MCF7
Hs-578T = test system: Hs-578T
SNB-75 = test system: SNB-75
MDA-MB-231 = test system: MDA-MB-231
HOP-92 = test system: HOP-92

Measured: GI50

O=C1/C(=C/c2ccccc2)CN(C(=O)/C=C/c2ccccc2)C/C1=C\c1ccccc1
inactive: KM12 4.17 µM | OVCAR-4 6.85 µM | OVCAR-8 4.88 µM | SW-620 2.39 µM | BT-549 2.26 µM | IGROV-1 6.95 µM | A498 33.3 µM | DMS-273 4.74 µM | SF-539 9.75 µM | SK-MEL-28 7.62 µM | CCRF-CEM 2.85 µM | UACC-62 5.69 µM | SF-295 4.79 µM | OVCAR-5 17.6 µM | PC-3 2.03 µM | MCF7 1.75 µM | Hs-578T 4.27 µM | SNB-75 13.5 µM | MDA-MB-231 3.18 µM | HOP-92 25.9 µM

C[N+](C)(C)CC(=O)N/N=C(\C(=O)NC1=C(Cl)C(=O)c2ccccc2C1=O)C(C#N)c1nc(-c2ccc([N+](=O)[O-])cc2)cs1 (stereo not given)
inactive: KM12 14.6 µM | OVCAR-4 10.1 µM | OVCAR-8 9.35 µM | SW-620 8.15 µM | BT-549 3.77 µM | IGROV-1 6.71 µM | A498 16.9 µM | DMS-273 9.02 µM | SF-539 8.38 µM | SK-MEL-28 6.1 µM | CCRF-CEM 8.28 µM | UACC-62 3.83 µM | SF-295 6.37 µM | OVCAR-5 13.1 µM | PC-3 6.89 µM | MCF7 5.41 µM | Hs-578T 7.85 µM | SNB-75 7.23 µM | MDA-MB-231 10.3 µM | HOP-92 13 µM

O=C1/C(=C/c2ccc3c(c2)OCO3)CCC1CN1CCOCC1 (stereo not given)
inactive: KM12 4.65 µM | OVCAR-4 6.73 µM | OVCAR-8 7.64 µM | SW-620 2.07 µM | BT-549 18 µM | IGROV-1 16.1 µM | A498 14.8 µM | DMS-273 8.79 µM | SF-539 13 µM | SK-MEL-28 3.4 µM | CCRF-CEM 1.54 µM | UACC-62 9.16 µM | SF-295 18.2 µM | OVCAR-5 14 µM | PC-3 2.17 µM | MCF7 2.1 µM | Hs-578T 3.84 µM | SNB-75 14.6 µM | MDA-MB-231 3.36 µM | HOP-92 9.89 µM

CC1=C(N(C)C)C(=O)c2nc3n(c2C1=O)CCC3OC(N)=O (stereo not given)
inactive: KM12 17.2 µM | OVCAR-4 19.9 µM | OVCAR-8 16.7 µM | SW-620 18.7 µM | IGROV-1 16.8 µM | A498 13.2 µM | DMS-273 15.8 µM | SF-539 17.5 µM | SK-MEL-28 20.2 µM | CCRF-CEM 15.1 µM | UACC-62 5.58 µM | SF-295 15.2 µM | OVCAR-5 19.6 µM | SNB-75 23.7 µM | HOP-92 14.8 µM
